Results from patent US12358901B2, “KV3 modulators” (priority 2018, dated 2025).
“And” between values parts separate entries of the source, which are not always exact repeats. Equal values may be shown once.

Columns and labels:
[1] = target: human Kv3.1 channels (hKv3.1) (Homo sapiens, UniProt P48547); assay: cell-based; type: cell-based; settings: for Kv3.1 pEC50: HEK-hKv3.1 cells, -15 mV voltage step, normalised to 50 microM reference compound; for Kv3.1 max R %: maximum response relative to reference compound (50 microM)
Source text: The ability of the compounds of the invention to modulate the voltage-gated potassium channel subtypes Kv3.3/Kv3.2/Kv3.1 may be determined using the following assay. Analogous methods may be used to investigate the ability of the compounds of the invention to modulate other channel subtypes.
To assess compound effects on human Kv3.1 channels (hKv3.1):
Human embryonic kidney (HEK)-hKv3.1 cell line is generated by transfecting HEK-293 cells with an expression vector with human Kv3.1 (NM_004976.4). Cells are cultured with MEM supplemented with 10% Heat-Inactivated FBS, 2 mM L-glutamine, 1% Penicillin-Streptomycin, and 0.6 mg/ml of Geneticin (G418). HEK-hKv3.1b cells were amplified in T175 cm2 flask at 37° C. with 5% CO2, using MEM amplification medium, containing the G418 selection antibiotic (0.6 mg/ml). Cells were detached every 3-4 days, using DPBS to wash twice the flask, then TrypLE to dislodge the cells, and re-plated at a density of 2-4×10^6 cells/flask.
The day of the experiment, cells are removed from the incubator and the culture medium removed. Cells are washed with 5 ml of Dulbecco's PBS (DPBS) calcium and magnesium free and detached by the addition of 3 ml Versene (Invitrogen, Italy) followed by a brief incubation at 37° C. for 5 minutes. The flask is tapped to dislodge cells and 10 ml of DPBS containing calcium and magnesium is added to prepare a cell suspension. The cell suspension is then placed into a 15 ml centrifuge tube and centrifuged for 2 min at 1200 rpm. After centrifugation, the supernatant is removed and the cell pellet re-suspended in 4 ml of DPBS containing calcium and magnesium using a 5 ml pipette to break up the pellet. Cell suspension volume is then corrected to give a cell concentration for the assay of approximately 3 million cells per ml.
Experiments are conducted at r.t. using IonWorks Quattro™ planar array electrophysiology technology (Molecular Devices Corp.) with PatchPlate™ PPC. Stimulation protocols and data acquisition are carried out using a microcomputer (Dell Pentium 4). Planar electrode hole resistances (Rp) are determined by applying a 10 mV voltage step across each well. These measurements are performed before cell addition. After cell addition and seal formation, a seal test is performed by applying a voltage step from −80 mV to −70 mV for 160 ms. Following this, amphotericin-B solution is added to the intracellular face of the electrode to achieve intracellular access. Cells are held at −70 mV. Leak subtraction is conducted in all experiments by applying 50 ms hyperpolarizing (10 mV) prepulses to evoke leak currents followed by a 20 ms period at the holding potential before test pulses.
For hKv3.2 and hKv3.1, assays from the holding potential of −70 mV, a first test pulse at −15 mV was applied for 100 ms and after 100 ms at −70 mV a second pulse at +40 mV was applied for 50 ms. Cells were then maintained for 100 ms at −100 mV and another pulse from −70 mV to +40 mV (duration 50 ms) was applied to clamp later the voltage at −40 mV during 200 ms
The intracellular solution contains the following (in mM): K-gluconate 100, KCl 54, MgCl2 3.2, HEPES 5, adjusted to pH 7.3 with KOH. Amphotericin-B solution is prepared as 50 mg/ml stock solution in DMSO and diluted to a final working concentration of 0.1 mg/ml in intracellular solution. The external solution is Dulbecco's Phosphate Buffered Saline (DPBS) and contained the following (in mM): CaCl2 0.90, KCl 2.67, KH2PO4 1.47, MgCl·6H2O 0.493, NaCl 136.9, Na3PO4 8.06, with a pH of 7.4.
Compounds of use in the invention (or reference compounds such as N-cyclohexyl-N-[(7,8-dimethyl-2-oxo-1,2-dihydro-3-quinolinyl)methyl]-N-phenylurea) are dissolved in dimethylsulfoxide (DMSO) at a stock concentration of 10 mM. These solutions are further diluted with DMSO using a Biomek FX (Beckman Coulter) in a 384 compound plate. Each dilution (1 μL) is transferred to another compound plate and external solution containing 0.05% pluronic acid (66 μL) is added. […]

[2] = Determination of brain tissue binding (equilibrium dialysis); type: in vitro ADME; settings: Sprague Dawley, rat whole brain homogenate, 5 h at 37° C.
Description: Sprague Dawley rat whole blood, collected on the week of the experiment using K3-EDTA as an anti-coagulant, is diluted with isotonic phosphate buffer 1:1 (v/v). Sprague Dawley rat whole brain, stored frozen at −20° C., is thawed and homogenised in artificial cerebrospinal fluid (CSF) 1:2 (w/v).
An appropriate amount of test compound is dissolved in DMSO to give a 10 millimolar solution. Further dilutions, to obtain a 166.7 micromolar working solution are then prepared using 50% acetonitrile in MilliQ water. This working solution is used to spike the blood to obtain a final concentration of 0.5 micromolar in whole blood. Similarly, the working solution is used to spike brain samples to obtain a final concentration of 5 micromolar in whole brain. From these spiked blood and brain preparations, control samples (n=3), are immediately extracted and used to calculate the initial recovery of the test items.
150 microL of compound-free buffer (isotonic phosphate buffer for blood or artificial CSF buffer for brain) is dispensed in one half-well and 150 microL of spiked matrix (blood or brain) is loaded in the other half-well, with the two halves separated by a semi-permeable membrane. After an equilibration period of 5 h at 37° C., 50 microL of dialysed matrix (blood or brain) is added to 50 microL of corresponding compound-free buffer, and vice-versa for buffer, such that the volume of buffer to matrix (blood or brain) remains the same. Samples are then extracted by protein precipitation with 300 microL of acetonitrile containing rolipram (control for positive ionization mode) or diclofenac (control for negative ionization mode) as internal standards and centrifuged for 10 min at 3000 rpm. Supernatants are collected (100 microL), diluted with 27% AcN in MilliQ water (200 microL) and then injected into an HPLC-MS/MS or UPLC-MS/MS system to determine the concentration of test compound present.
Blood and brain tissue binding are then determined using the following formulas: Afu=Buffer/Blood or Afu=CSF/Brain
Where Afu=apparent fraction unbound; Buffer=analyte/internal standard ratio determined in the buffer compartment; Blood=analyte/internal standard ratio determined in the blood compartment; Brain=analyte/internal standard ratio determined in the brain compartment.
[formula] where: fucr=Fraction unbound corrected; D=matrix dilution factor (D=2 for blood and D=3 for brain).
Then: % Binding=(1−fucr)×100 % Unbound=100−% Bound Brain/Blood Partition Ratio (Kbb) Determination

Row | Structure (SMILES) | Kv3.1 pEC50 [1] | Kv3.1 max R % [1] | fraction unbound at 5 h, 5 micromolar [2]
1 | CC[C@H]1NC(=O)N(c2cnc(Oc3ccc(C)c4c3C3(CC3)CO4)cn2)C1=O [Example 9, (5R)-5-ethyl-3-[5-(7-methylspiro[2H-benzofuran-3,1′-cyclopropane]-4-yl)oxypyrazin-2-yl]imidazolidine-2,4-dione] | 5.88 and 5.90 | 172% and 146% | 0.03
2 | CC[C@H]1NC(=O)N(c2cnc(Oc3cccc4c3C3(CC3)CO4)cn2)C1=O [Example 10, (5R)-5-ethyl-3-(5-spiro[2H-benzofuran-3,1′-cyclopropane]-4-yloxypyrazin-2-yl)imidazolidine-2,4-dione] | 5.45 and 5.63 | 153% and 147% | 0.087
3 | Cc1ccc(Oc2ncc(N3C(=O)NC(C)(C)C3=O)cn2)c2c1OCC21CC1 [RE5, reference compound] | 5.14 | 158% | 0.051
4 | CC[C@H]1NC(=O)N(c2ccc(Oc3ccc(C)c4c3C3(CC3)CO4)nc2)C1=O [RE11, reference compound] | 6.1 | 152% | 0.021
5 | CC[C@H]1NC(=O)N(c2ccc(Oc3cccc4c3C3(CC3)CO4)nc2)C1=O [RE13, (5R)-5-ethyl-3-(6-spiro[2H-benzofuran-3,1′-cyclopropane]-4-yloxy-3-pyridyl)imidazolidine-2,4-dione, reference compound] | 6.1 | 149% | 0.062
